Measurements reported in patent US20260069584A1, “METHODS OF TREATING CHRONIC MYELOID LEUKEMIA USING THE TYROSINE KINASE INHIBITOR VODOBATINIB” (Sun Pharma Advanced Research Company Ltd., priority 2022, published 2026).

System: CP CML
Experiment: Part B: disease response in CP CML subjects
Format: in vivo, human
Description: This was a Phase I/2, open-label, single-agent, multicenter, multi-dose, dose-escalation study in subjects with Philadelphia chromosome-positive Ph+ CML (CP CML, AP CML and BP CML) and Ph+ ALL. The primary objectives of this study were to determine the maximum tolerated dose (MTD; or recommended Phase 2 dose [RP2D]) of the compound of Formula I when administered orally and to evaluate its safety.
In this study, the dose-escalation cohort started with an accelerated titration study design (ATD) and shifted to a 3±3 design when subjects in the preceding ATD cohort experienced either grade 2 or higher adverse events (AEs) or dose-limiting toxicity (DLT) during Cycle 1 that was not clearly and incontrovertibly related to the underlying disease or concomitant medications. The DLT period consisted of 28 days (Cycle 1). Subjects experiencing DLTs were managed with dose delays and/or discontinuation and continued in the study until disease progression. Decisions to advance to a succeeding dose level occurred after the evaluation of safety and tolerability data for a given dose level.
Accordingly, the eligible subjects were treated in 4-week cycles of once daily self-administration of the compound of Formula I. The administration was after an overnight fast, or after maintaining approximately 2 hours of fasting before and after the dosing in all cycles.
For the cohorts, where the 3±3 design applies, 3 subjects were enrolled initially. If 2 of these subjects experienced a Grade 2 or more toxicity (that was not clearly and incontrovertibly related to the underlying disease or concomitant medications), subsequent cohorts were escalated according to smaller increments. Further, if there were no DLTs in the first 3 subjects, dose escalation to the next higher dose level was allowed to proceed. If 1 of the 3 subjects experienced a DLT, that dose level was expanded to 6 subjects (3 additional subjects were enrolled). If 2 subjects at a given dose level experienced a DLT, the MTD was considered to have been exceeded. The next lower dose level was expanded to 6 subjects, or if 6 subjects had already been enrolled and no more than 1 of the 6 subjects experienced a DLT, then this lower dose level was considered the MTD. Additional subjects were enrolled in dose escalation cohorts for further assessment of safety and efficacy of the compound of Formula 1 at doses that were tolerated (i.e., doses that have <2 DLTs in 6 enrolled subjects or <1 DLT in 3 enrolled subjects). Thus 204 mg was arrived at as MTD. A subject experiencing a DLT was allowed to continue therapy with a reduced dose. Subjects who experienced a DLT and recovered were treated at the next lower dose level until disease progression or other events requiring further dose reduction existed. For cohorts at Dose Level 2 or higher, a further dose reduction (i.e., up to 2 levels lower than their originally assigned dose) was implemented in the case of a further DLT or other non-DLT events requiring a dose reduction, if and when the event leading to dose reduction returned to Grade 1 or lower in severity. The reduced dose was re-escalated to the original or higher dose (i.e., the dose for which safety had been established in the dose escalation cohort) considering subject safety and response to the compound of Formula I. The subject was discontinued from treatment using the compound of Formula I, if dose reduction below 48 mg was required.
The study was conducted over a period of 60 months (5 years) which was divided in 28-days cycle. In the first two cycles, the dose administration was started on day 1 and the subject's assessments were performed on day 1, day 2, day 3, day 8, day 15 and day 22. From Cycle 3 onwards, the assessments were performed every 3 months (i.e., on day 28 of Cycle 3, followed by day 28 of Cycle 6 which was further followed by day 28 of Cycle 9). […]

In the case of `Cc1ccc(C(=O)NNC(=O)c2c(C)cccc2Cl)cc1C#Cc1cnc2ccccc2c1` [compound of Formula I, N′-(2-chloro-6-methylbenzoyl)-4-methyl-3-[2-(3-quinolyl)ethynyl]-benzohydrazide], the “Best Cytogenetic Response: Complete Response” value (12 mg (N = 1) ESC) is reported as 1(100), the “Best Cytogenetic Response: Major Cytogenetic Response” value (12 mg (N = 1) ESC) is reported as 1(100) and the “Best Cytogenetic Response: Minimal Response” value (12 mg (N = 1) ESC) is reported as 0. For the same compound, the “Best Cytogenetic Response: Minor Response” value (12 mg (N = 1) ESC) was 0, the “Best Cytogenetic Response: No Response” value (12 mg (N = 1) ESC) was 0 and the “Best Cytogenetic Response: Partial Response” value (12 mg (N = 1) ESC) was 0. For the same compound, the “Best Hematologic Response: Complete Response” value (12 mg (N = 1) ESC) was 1(100), the “Best Hematologic Response: Major Hematologic Response” value (12 mg (N = 1) ESC) was 1(100) and the “Best Hematologic Response: No Evidence of Leukemia” value (12 mg (N = 1) ESC) was 0. For the same compound, the “Best Hematologic Response: No Response” value (12 mg (N = 1) ESC) was 0, the “Best Molecular Response: Complete Response” value (12 mg (N = 1) ESC) was 0 and the “Best Molecular Response: Major Response” value (12 mg (N = 1) ESC) was 0. For the same compound, the “Best Cytogenetic Response: Complete Response” value (48 mg (N = 3) ESC) was 2(66.7), the “Best Cytogenetic Response: Major Cytogenetic Response” value (48 mg (N = 3) ESC) was 2(66.7) and the “Best Cytogenetic Response: Minimal Response” value (48 mg (N = 3) ESC) was 0. The “Best Cytogenetic Response: Minor Response” value (48 mg (N = 3) ESC) was 0, the “Best Cytogenetic Response: No Response” value (48 mg (N = 3) ESC) was 0 and the “Best Cytogenetic Response: Partial Response” value (48 mg (N = 3) ESC) was 0. The “Best Hematologic Response: Complete Response” value (48 mg (N = 3) ESC) was 2(66.7), the “Best Hematologic Response: Major Hematologic Response” value (48 mg (N = 3) ESC) was 2(66.7) and the “Best Hematologic Response: No Evidence of Leukemia” value (48 mg (N = 3) ESC) was 0. For the same compound, the “Best Hematologic Response: No Response” value (48 mg (N = 3) ESC) was 1(33.3), the “Best Molecular Response: Complete Response” value (48 mg (N = 3) ESC) was 2(66.7) and the “Best Molecular Response: Major Response” value (48 mg (N = 3) ESC) was 2(66.7). The “Best Molecular Response: No Response” value (48 mg (N = 3) ESC) was 0, the “Best Cytogenetic Response: Complete Response” value (66 mg (N = 4) ESC) was 2(50.0) and the “Best Cytogenetic Response: Major Cytogenetic Response” value (66 mg (N = 4) ESC) was 2(50.0). The “Best Cytogenetic Response: Minimal Response” value (66 mg (N = 4) ESC) was 1(25.0), the “Best Cytogenetic Response: Minor Response” value (66 mg (N = 4) ESC) was 0 and the “Best Cytogenetic Response: No Response” value (66 mg (N = 4) ESC) was 1(25.0). The “Best Cytogenetic Response: Partial Response” value (66 mg (N = 4) ESC) was 0, the “Best Hematologic Response: Complete Response” value (66 mg (N = 4) ESC) was 3(75.0) and the “Best Hematologic Response: Major Hematologic Response” value (66 mg (N = 4) ESC) was 3(75.0). For the same compound, the “Best Hematologic Response: No Evidence of Leukemia” value (66 mg (N = 4) ESC) was 0, the “Best Hematologic Response: No Response” value (66 mg (N = 4) ESC) was 1(25.0) and the “Best Molecular Response: Complete Response” value (66 mg (N = 4) ESC) was 1(25.0). The “Best Molecular Response: Major Response” value (66 mg (N = 4) ESC) was 1(25.0), the “Best Molecular Response: No Response” value (66 mg (N = 4) ESC) was 3(75.0) and the “Best Cytogenetic Response: Complete Response” value (90 mg (N = 2) ESC) was 0. For the same compound, the “Best Cytogenetic Response: Major Cytogenetic Response” value (90 mg (N = 2) ESC) was 1(50.0), the “Best Cytogenetic Response: Minimal Response” value (90 mg (N = 2) ESC) was 0 and the “Best Cytogenetic Response: Minor Response” value (90 mg (N = 2) ESC) was 0. For the same compound, the “Best Cytogenetic Response: No Response” value (90 mg (N = 2) ESC) was 1(50.0), the “Best Cytogenetic Response: Partial Response” value (90 mg (N = 2) ESC) was 1(50.0) and the “Best Hematologic Response: Complete Response” value (90 mg (N = 2) ESC) was 2(100). The “Best Hematologic Response: Major Hematologic Response” value (90 mg (N = 2) ESC) was 2(100), the “Best Hematologic Response: No Evidence of Leukemia” value (90 mg (N = 2) ESC) was 0 and the “Best Hematologic Response: No Response” value (90 mg (N = 2) ESC) was 0. The “Best Molecular Response: Complete Response” value (90 mg (N = 2) ESC) was 0, the “Best Molecular Response: Major Response” value (90 mg (N = 2) ESC) was 1(50.0) and the “Best Molecular Response: No Response” value (90 mg (N = 2) ESC) was 1(50.0). The “Best Cytogenetic Response: Complete Response” value (126 mg (N = 4) ESC) was 2(50.0), the “Best Cytogenetic Response: Major Cytogenetic Response” value (126 mg (N = 4) ESC) was 2(50.0) and the “Best Cytogenetic Response: Minimal Response” value (126 mg (N = 4) ESC) was 1(25.0). For the same compound, the “Best Cytogenetic Response: Minor Response” value (126 mg (N = 4) ESC) was 0, the “Best Cytogenetic Response: No Response” value (126 mg (N = 4) ESC) was 1(25.0) and the “Best Cytogenetic Response: Partial Response” value (126 mg (N = 4) ESC) was 0. The “Best Hematologic Response: Complete Response” value (126 mg (N = 4) ESC) was 4(100), the “Best Hematologic Response: Major Hematologic Response” value (126 mg (N = 4) ESC) was 4(100) and the “Best Hematologic Response: No Evidence of Leukemia” value (126 mg (N = 4) ESC) was 0. For the same compound, the “Best Hematologic Response: No Response” value (126 mg (N = 4) ESC) was 0, the “Best Molecular Response: Complete Response” value (126 mg (N = 4) ESC) was 1(25.0) and the “Best Molecular Response: Major Response” value (126 mg (N = 4) ESC) was 1(25.0). For the same compound, the “Best Molecular Response: No Response” value (126 mg (N = 4) ESC) was 3(75.0), the “Best Cytogenetic Response: Complete Response” value (174 mg (N = 7) ESC) was 3(42.9) and the “Best Cytogenetic Response: Major Cytogenetic Response” value (174 mg (N = 7) ESC) was 3(42.9). The “Best Cytogenetic Response: Minimal Response” value (174 mg (N = 7) ESC) was 2(28.6), the “Best Cytogenetic Response: Minor Response” value (174 mg (N = 7) ESC) was 1(14.3) and the “Best Cytogenetic Response: No Response” value (174 mg (N = 7) ESC) was 0. For the same compound, the “Best Cytogenetic Response: Partial Response” value (174 mg (N = 7) ESC) was 0, the “Best Hematologic Response: Complete Response” value (174 mg (N = 7) ESC) was 4(57.1) and the “Best Hematologic Response: Major Hematologic Response” value (174 mg (N = 7) ESC) was 4(57.1). The “Best Hematologic Response: No Evidence of Leukemia” value (174 mg (N = 7) ESC) was 0, the “Best Hematologic Response: No Response” value (174 mg (N = 7) ESC) was 2(28.6) and the “Best Molecular Response: Complete Response” value (174 mg (N = 7) ESC) was 1(14.3). For the same compound, the “Best Molecular Response: Major Response” value (174 mg (N = 7) ESC) was 3(42.9), the “Best Molecular Response: No Response” value (174 mg (N = 7) ESC) was 3(42.9) and the “Best Cytogenetic Response: Complete Response” value (174 mg (N = 10) EXP) was 6(60.0). For the same compound, the “Best Cytogenetic Response: Major Cytogenetic Response” value (174 mg (N = 10) EXP) was 7(70.0), the “Best Cytogenetic Response: Minimal Response” value (174 mg (N = 10) EXP) was 3(30.0) and the “Best Cytogenetic Response: Minor Response” value (174 mg (N = 10) EXP) was 0. For the same compound, the “Best Cytogenetic Response: No Response” value (174 mg (N = 10) EXP) was 0, the “Best Cytogenetic Response: Partial Response” value (174 mg (N = 10) EXP) was 1 (10.0) and the “Best Hematologic Response: Complete Response” value (174 mg (N = 10) EXP) was 10(100). The “Best Hematologic Response: Major Hematologic Response” value (174 mg (N = 10) EXP) was 10(100), the “Best Hematologic Response: No Evidence of Leukemia” value (174 mg (N = 10) EXP) was 0 and the “Best Hematologic Response: No Response” value (174 mg (N = 10) EXP) was 0. For the same compound, the “Best Molecular Response: Complete Response” value (174 mg (N = 10) EXP) was 1(10.0), the “Best Molecular Response: Major Response” value (174 mg (N = 10) EXP) was 1(10.0) and the “Best Molecular Response: No Response” value (174 mg (N = 10) EXP) was 9(90.0). The “Best Cytogenetic Response: Complete Response” value (204 mg (N = 6) ESC) was 4(66.7), the “Best Cytogenetic Response: Major Cytogenetic Response” value (204 mg (N = 6) ESC) was 6(100) and the “Best Cytogenetic Response: Minimal Response” value (204 mg (N = 6) ESC) was 0. For the same compound, the “Best Cytogenetic Response: Minor Response” value (204 mg (N = 6) ESC) was 0, the “Best Cytogenetic Response: No Response” value (204 mg (N = 6) ESC) was 0 and the “Best Cytogenetic Response: Partial Response” value (204 mg (N = 6) ESC) was 2(33.3). The “Best Hematologic Response: Complete Response” value (204 mg (N = 6) ESC) was 6(100), the “Best Hematologic Response: Major Hematologic Response” value (204 mg (N = 6) ESC) was 6(100) and the “Best Hematologic Response: No Evidence of Leukemia” value (204 mg (N = 6) ESC) was 0.
